Measurements reported in PubChem BioAssay (NCI).
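Briefly, cells in 96-well plates were exposed to five compound concentrations for 48 h, and endpoints were estimated by linear interpolation. TGI denotes the concentration required for complete inhibition of growth.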 Where a SMILES comes first, the peptide text is derived from it. [ ]: non-standard residue; d: D form.

Assays:
Experiment in all cases: NCI tumour cell line growth inhibition, 48 h
LXFL 529 NSCLC = tested on: LXFL 529 NSCLC
RXF-631 renal = tested on: RXF-631 renal
P388 leukemia = tested on: P388 leukemia
P388/ADR leukemia = tested on: P388/ADR leukemia
XF 498 CNS = tested on: XF 498 CNS
SN12K1 renal = tested on: SN12K1 renal
HOP-18 NSCLC = tested on: HOP-18 NSCLC

Structure (SMILES) | TGI (LXFL 529 NSCLC) [µM] | TGI (RXF-631 renal) [µM] | TGI (P388 leukemia) [µM] | TGI (P388/ADR leukemia) [µM] | TGI (XF 498 CNS) [µM] | TGI (SN12K1 renal) [µM] | TGI (HOP-18 NSCLC) [µM]
COc1ccc(C(C2=C(O)CC(C)OC2=O)C2=C(O)CC(C)OC2=O)cc1 (centres undefined) | > 100 | > 100 | – | – | – | – | –
CC(C)C[C@H](NC(=O)[C@H](CC(C)C)NC(=O)[C@@H](Cc1c[nH]c2ccccc12)NC(=O)[C@H](Cc1ccccc1)NC(=O)[C@@H](Cc1c[nH]c2ccccc12)NC(=O)[C@H](CCC(N)=O)NC(=O)[C@@H](CCC(N)=O)NC(=O)[C@@H]1CCCN1C(=O)[C@@H](CCCCN)NC(=O)[C@H]1CCCN1C(=O)[C@H](N)CCCN=C(N)N)C(N)=O (H-[dR][dP][dK]P[dQ]Q[dW]F[dW]LL-NH2) | – | – | > 100 | > 100 | > 100 | > 100 | > 100
C/C(=N\N=C(N)N)C(CN1CCOCC1)C(c1ccccc1)c1c(O)c2ccccc2oc1=O (centres undefined) | > 100 | – | – | – | > 100 | – | > 100
O=C(CC12C3C4C1C1C2C3C41CC(=O)NO)NO (centres undefined) | > 100 | > 100 | – | – | > 100 | – | –
N=C1C=CC(=C(c2ccc(N)cc2)c2ccc(N)cc2)C=C1 | 14 | – | – | – | 7.45 | – | –
N#CC1=C(O)NC(O)=C(C#N)C1c1c(Cl)cccc1Cl | – | – | – | – | > 100 | – | > 100
O=S(=O)(O)c1cc(S(=O)(=O)O)c2cc(N=Nc3ccc(N=Nc4ccc(/C=C/c5ccc(N=[N+]([O-])c6ccc(/C=C/c7ccc(N=Nc8ccc(N=Nc9ccc%10cc(S(=O)(=O)O)cc(S(=O)(=O)O)c%10c9)cc8)cc7S(=O)(=O)O)c(S(=O)(=O)O)c6)cc5S(=O)(=O)O)c(S(=O)(=O)O)c4)cc3)ccc2c1 | – | – | > 31.2 | – | > 100 | > 100 | > 85.8
CSc1ccc(N2C(=O)C3c4[nH]c5ccccc5c4C4CCC(C(C)(C)C)CC4C3C2=O)cc1 (centres undefined) | 47.5 | – | – | – | > 100 | – | 53.5
O=C1Sc2ccccc2C(=O)N2CCSC12 (centres undefined) | > 100 | – | – | – | – | – | > 100
O=C1CCC2(O)c3ccccc3C2Cc2ccccc21 (centres undefined) | – | – | – | – | > 100 | – | > 100
NC(=Nc1ccccc1)N/N=C/c1c[nH]c2ccccc12 | 14.4 | – | – | – | – | – | 73
Cc1cc(C)[n+]2c(c1)C=CC2 | > 100 | – | – | – | – | – | –
Clc1ccc(C2SCc3nc4ccccc4n32)cc1 (centres undefined) | 87.1 | > 100 | – | – | 27.5 | – | > 100
COCC(C#N)NC1CC(OC2CC(O)(C(=O)CO)Cc3c(O)c4c(c(O)c32)C(=O)c2c(OC)cccc2C4=O)OC(C)C1O (centres undefined) | 1.06 | 2.35 | – | – | 0.0678 | – | 70.8
